Laboratory results: article PMC13375149 (Journal of Raman spectroscopy : JRS, 2025)

Legend:
[1] = SERS detection and time profile of PAHs/PAC in murine tissue extracts; type: in vivo, mice (C57BL6J)
[2] = GC-MS/MS quantification of B[a]P, PYR and TQE in tissues; type: in vivo, mice (C57BL6J)
[3] = 24, 48, 72 h post-injection, t(1) < 12.71, p > 0.05 as printed

Row | Tissue accumulation relative to the other analyzed compounds ([2]; IP mixture, brain, kidney, liver, lung, 24-72 h post-exposure) | SMILES | Detection in liver and kidney tissues using SERS and SEIRA ([1]; mouse, in vivo) | Statistical significance of GC-MS/MS tissue concentrations ([2]; female, C57BL6J, mouse, in vivo) | Statistical significance of GC-MS/MS tissue concentrations [2, 3] | Detection in liver and kidney tissues using SERS and SEIRA ([1]; mice exposed to individual PAHs or PACs, Figs. S3 and S4)
1 | – | c1ccc2c(c1)cc1ccc3cccc4ccc2c1c34 [B[a]P, benzo(a)pyrene] | successful detection | statistically significant except in lung at 72 hours post-injection | – | –
2 | lowest accumulation | O=C1c2ccccc2C(=O)c2cc3ccccc3cc21 [TQE, 5,12-Naphthacenequinone] | successful detection | – | statistically significant across all tissues and time points | –
3 | – | c1cc2ccc3cccc4ccc(c1)c2c34 [PYR, pyrene] | – | – | statistically significant across all tissues and time points | successful detection
